According to patent US6350768B1 (Aventis Pharma S.A., priority 1999, dated 2002):

System: purified rat motoneurons
Conditions: BDNF 1 ng/ml
Experimental: The effect of the combination has been studied on the cellular death of purified rat motoneurons which is induced by sera from patients suffering from amyotrophic lateral sclerosis.
Purified motoneurons prepared from the spinal cord of rat embryos at 14 days of gestation are cultured in the presence of optimum concentrations of recombinant “brain-derived neurotrophic factor” (BDNF), one of the principal neurotrophic factors for the survival of the motoneurons. […] After a further 2 hours, dilutions of dialyzed sera from patients suffering from ALS are added. On the next day, the number of surviving motoneurons is evaluated by direct counting under a phase contrast microscope.
The stock solution of gabapentin is prepared directly by dissolving 17.1 mg of gabapentin in 1 ml of double distilled water.
Rat embryos at 14 days of gestation (Charles River, France) are recovered after sacrificing the mother, under CO2 anesthesia, by pulling the neck. These embryos are placed in phosphate buffer (“phosphate-buffered saline”, PBS) free of calcium and magnesium (Life Technologies).
Unless otherwise stated, the composition of the media used is identical to that indicated in these references. Spinal cords from rat embryos at 14 days of gestation are dissected in sterile PBS and the ventral halves of each cord containing the motoneurons are subdissected. […]

## NCC1(CC(=O)O)CCCCC1 [Gabapentin]
Mean of 8 measurements, 4 wells, ALS serum 0.1%, Gabapentin 10^−5 M alone
  Number of motoneurons, Mean (± SEM): 5.0
Medium treated with gabapentin alone, ALS serum
  survival of the motoneurons: 8%
